According to PubChem BioAssay (NCI):
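In this assay, cells in 96-well plates receive the compound at five concentrations for 48 hours. Endpoints are linearly interpolated between the surrounding concentrations. The concentration for 50% growth inhibition is given as GI50. TGI: concentration producing complete growth inhibition.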

How the values were obtained:
Assay in all cases: inhibition of tumour cell growth, NCI panel, 48 h
RPMI-8226 leukemia = tested on: RPMI-8226 leukemia
CCRF-CEM leukemia = tested on: CCRF-CEM leukemia
COLO 205 colon = tested on: COLO 205 colon
K-562 leukemia = tested on: K-562 leukemia
786-0 renal = tested on: 786-0 renal
NCI-H522 lung = tested on: NCI-H522 lung
OVCAR-8 ovarian = tested on: OVCAR-8 ovarian
NCI-H226 lung = tested on: NCI-H226 lung
SK-MEL-2 melanoma = tested on: SK-MEL-2 melanoma
PC-3 prostate = tested on: PC-3 prostate

Brc1ccccc1C1SCc2nc3ccccc3n21 (stereo not drawn)
TGI (RPMI-8226 leukemia): > 100 µM | TGI (CCRF-CEM leukemia): > 100 µM | TGI (COLO 205 colon): 32.1 µM | TGI (K-562 leukemia): > 100 µM | TGI (786-0 renal): 29.4 µM | TGI (NCI-H522 lung): 33.9 µM | TGI (OVCAR-8 ovarian): 57.1 µM | TGI (NCI-H226 lung): 31.6 µM | TGI (SK-MEL-2 melanoma): 32.5 µM

OCCCCCNCc1cc2cc3c(cc2c2cc(OCc4ccccc4)ccc12)OCO3
GI50 (CCRF-CEM leukemia): 2.52 µM | TGI (CCRF-CEM leukemia): 6.11 µM | GI50 (K-562 leukemia): 1.68 µM | TGI (K-562 leukemia): 4.11 µM | GI50 (786-0 renal): 1.61 µM | TGI (786-0 renal): 2.96 µM | GI50 (OVCAR-8 ovarian): 1.48 µM | TGI (OVCAR-8 ovarian): 2.8 µM | GI50 (NCI-H226 lung): 1.85 µM | TGI (NCI-H226 lung): 3.41 µM | GI50 (SK-MEL-2 melanoma): 1.74 µM | TGI (SK-MEL-2 melanoma): 3.24 µM

COc1cc2c3c(n(C)c(=O)c2cc1OC)-c1cc2c(cc1/C3=C\CCCN)OCO2
GI50 (COLO 205 colon): 7.67 µM | TGI (COLO 205 colon): > 100 µM | GI50 (K-562 leukemia): 1.31 µM | TGI (K-562 leukemia): 12 µM | GI50 (786-0 renal): 1.23 µM | TGI (786-0 renal): 5.02 µM | GI50 (NCI-H522 lung): 0.61 µM | TGI (NCI-H522 lung): 23.4 µM | GI50 (OVCAR-8 ovarian): 10.1 µM | TGI (OVCAR-8 ovarian): 22.4 µM | GI50 (PC-3 prostate): 3.31 µM | TGI (PC-3 prostate): 31.9 µM | GI50 (NCI-H226 lung): 9.33 µM | TGI (NCI-H226 lung): 31.6 µM | GI50 (SK-MEL-2 melanoma): 16.6 µM | TGI (SK-MEL-2 melanoma): 45 µM

CCc1cc(Cc2cc(CC)c(NC(=O)C(=O)Cc3ccccn3)c(CC)c2Cl)c(Cl)c(CC)c1NC(=O)C(=O)Cc1ccccn1
TGI (RPMI-8226 leukemia): > 100 µM | TGI (CCRF-CEM leukemia): > 100 µM | TGI (COLO 205 colon): > 100 µM | TGI (K-562 leukemia): > 100 µM | TGI (786-0 renal): > 100 µM | TGI (OVCAR-8 ovarian): > 100 µM | TGI (NCI-H226 lung): > 100 µM | TGI (SK-MEL-2 melanoma): > 100 µM

COc1cc(OC)cc(-c2cc(=O)c3c(OC)c(OC)c(OC)c(OC)c3o2)c1
TGI (RPMI-8226 leukemia): > 100 µM | TGI (CCRF-CEM leukemia): > 100 µM | TGI (COLO 205 colon): 30.6 µM | TGI (K-562 leukemia): > 100 µM | TGI (786-0 renal): > 100 µM | TGI (NCI-H522 lung): 51.1 µM | TGI (OVCAR-8 ovarian): > 100 µM | TGI (NCI-H226 lung): > 100 µM | TGI (SK-MEL-2 melanoma): 55.1 µM

C#CC1(O)CCC2C3CCc4cc(Oc5nc(F)nc(-c6c7ccccc7c7sc8ccccc8n67)n5)ccc4C3CC[C@@]21C (stereo partly drawn)
TGI (RPMI-8226 leukemia): > 100 µM | TGI (CCRF-CEM leukemia): > 100 µM | TGI (COLO 205 colon): > 100 µM | TGI (K-562 leukemia): > 100 µM | TGI (786-0 renal): > 100 µM | TGI (NCI-H522 lung): 43.7 µM | TGI (OVCAR-8 ovarian): > 100 µM | TGI (NCI-H226 lung): > 100 µM | TGI (SK-MEL-2 melanoma): > 100 µM

COC(OC)C(C)CC(=O)N(C)C (stereo not drawn)
TGI (RPMI-8226 leukemia): > 100 µM | TGI (CCRF-CEM leukemia): > 100 µM | TGI (COLO 205 colon): > 100 µM | TGI (K-562 leukemia): > 100 µM | TGI (786-0 renal): > 100 µM | TGI (OVCAR-8 ovarian): > 100 µM | TGI (NCI-H226 lung): > 100 µM | TGI (SK-MEL-2 melanoma): > 100 µM

CCOC(=O)CC(=O)ON(C)C(C)=O
TGI (RPMI-8226 leukemia): > 100 µM | TGI (CCRF-CEM leukemia): > 100 µM | TGI (COLO 205 colon): > 100 µM | TGI (K-562 leukemia): > 100 µM | TGI (786-0 renal): > 100 µM | TGI (NCI-H522 lung): > 100 µM | TGI (OVCAR-8 ovarian): > 100 µM | TGI (NCI-H226 lung): > 100 µM | TGI (SK-MEL-2 melanoma): > 100 µM

O=c1cc(-c2ccccc2)oc2cc(OCCCOc3ccc4c(=O)cc(-c5ccccc5)oc4c3)ccc12
TGI (RPMI-8226 leukemia): > 100 µM | TGI (CCRF-CEM leukemia): > 100 µM | TGI (COLO 205 colon): > 100 µM | TGI (K-562 leukemia): > 100 µM | TGI (786-0 renal): > 100 µM | TGI (NCI-H522 lung): > 100 µM | TGI (OVCAR-8 ovarian): > 100 µM | TGI (NCI-H226 lung): > 100 µM | TGI (SK-MEL-2 melanoma): > 100 µM

COc1ccc(S(=O)(=O)NNS(C)(=O)=O)cc1
TGI (RPMI-8226 leukemia): > 100 µM | TGI (CCRF-CEM leukemia): > 100 µM | TGI (COLO 205 colon): > 100 µM | TGI (K-562 leukemia): > 100 µM | TGI (786-0 renal): > 100 µM | TGI (NCI-H522 lung): > 100 µM | TGI (OVCAR-8 ovarian): > 100 µM | TGI (NCI-H226 lung): > 100 µM | TGI (SK-MEL-2 melanoma): > 100 µM
